Reference: PMC10327353 (Breast Cancer Research : BCR, 2023)

Assay: Phase 1 study: safety and tolerability
Assay type: in vivo
Method: The maximum tolerated dose (MTD) of DZD1516 was defined based on safety data and the Bayesian optimal interval (BOIN) design (Additional file 1). The definition of DLT is provided in Additional file 1.
The AE grading was assessed according to the NCI-Common Terminology Criteria for Adverse Events (CTCAE) (version 5.0) and was monitored until 28 days after the last dose.
Eligible patients received single oral dosing of DZD1516 on Cycle 0 Day 1 (C0D1), followed by a 7-day washout. Twice daily oral dosing (bid) of DZD1516 was commenced from C1D1 in a continuous 21-day cycle until disease progression, unacceptable toxicity, or withdrawal of consent. All doses were taken under fed conditions (within 30 minutes after a meal).
Planned dosing consisted of 25, 50, 100, 200, 300, and 400 mg. Each dose escalation cohort will comprise a minimum of three and a maximum of six evaluable patients (except only one patient in the starting dose cohort). The maximum tolerated dose of DZD1516 was defined according to safety data and the Bayesian optimal interval (BOIN) design. Dose escalation/de-escalation rule with target toxicity rate for the MTD is 0.30 with interval of (0.20, 0.33).
DLTs were any adverse event (AE) not clearly attributable to the patient’s disease, including ≥ grade 4 hematological toxicities present for ≥ 4 days, grade 3 thrombocytopenia with bleeding, or grade 4 thrombocytopenia lasting for > 5 days, ≥ grade 3 non-hematological toxicities that is dose-limiting in the judgment of the investigators. Any other toxicity that is greater than that at baseline, is clinically significant or unacceptable, and is judged to be a DLT by the SRC. Exceptions included alopecia of any grade and isolated grade 3 laboratory change without clinical sequelae or clinical significance.
Safety evaluations were conducted at screening, on Day 1, 8, and 15 of Cycle 1, on Day 1 of each subsequent treatment cycle, at the end-of-treatment visit, and clinically indicated. Safety assessments included clinical laboratory measurements (hematology, chemistry, coagulation, and urinalysis), electrocardiogram (ECG), Echocardiogram/MUGA scan, ECOG performance status, vital signs, and physical examinations.

COc1cc(O[C@H]2CCN(C)CC2(F)F)c2c(Nc3ccc(Oc4ccn5ncnc5c4)c(C)c3)ncnc2c1 [DZD1516]
Malaise, Any Grade (100 mg (N = 4)): 0 (0.0) n (%)
Malaise, ≥ Grade 3 (100 mg (N = 4)): 0 (0.0) n (%)
Metabolism and nutrition disorders, Any Grade (100 mg (N = 4)): 3 (75.0) n (%)
Metabolism and nutrition disorders, ≥ Grade 3 (100 mg (N = 4)): 0 (0.0) n (%)
Musculoskeletal and connective tissue disorders, Any Grade (100 mg (N = 4)): 0 (0.0) n (%)
Musculoskeletal and connective tissue disorders, ≥ Grade 3 (100 mg (N = 4)): 0 (0.0) n (%)
Nausea, Any Grade (100 mg (N = 4)): 0 (0.0) n (%)
Nausea, ≥ Grade 3 (100 mg (N = 4)): 0 (0.0) n (%)
Nervous system disorders, Any Grade (100 mg (N = 4)): 3 (75.0) n (%)
Nervous system disorders, ≥ Grade 3 (100 mg (N = 4)): 0 (0.0) n (%)
Participants with any TEAE, Any Grade (100 mg (N = 4)): 4 (100.0) n (%)
Participants with any TEAE, ≥ Grade 3 (100 mg (N = 4)): 1 (25.0) n (%)
Platelet count decreased, Any Grade (100 mg (N = 4)): 1 (25.0) n (%)
Platelet count decreased, ≥ Grade 3 (100 mg (N = 4)): 0 (0.0) n (%)
Proteinuria, Any Grade (100 mg (N = 4)): 0 (0.0) n (%)
Proteinuria, ≥ Grade 3 (100 mg (N = 4)): 0 (0.0) n (%)
Renal and urinary disorders, Any Grade (100 mg (N = 4)): 1 (25.0) n (%)
Renal and urinary disorders, ≥ Grade 3 (100 mg (N = 4)): 0 (0.0) n (%)
Subjects with any TEAE (100 mg (N = 4)): 4 (100.0) n (%)
Subjects with any drug-related TEAE (100 mg (N = 4)): 4 (100.0) n (%)
Vomiting, Any Grade (100 mg (N = 4)): 2 (50.0) n (%)
Vomiting, ≥ Grade 3 (100 mg (N = 4)): 1 (25.0) n (%)
White blood cell count decreased, Any Grade (100 mg (N = 4)): 0 (0.0) n (%)
White blood cell count decreased, ≥ Grade 3 (100 mg (N = 4)): 0 (0.0) n (%)
Alanine aminotransferase increased, Any Grade (200 mg (N = 5)): 0 (0.0) n (%)
Alanine aminotransferase increased, ≥ Grade 3 (200 mg (N = 5)): 0 (0.0) n (%)
Anemia, Any Grade (200 mg (N = 5)): 1 (20.0) n (%)
Anemia, ≥ Grade 3 (200 mg (N = 5)): 0 (0.0) n (%)
Any TEAE: Grade 3 (200 mg (N = 5)): 1 (20.0) n (%)
Any TEAE: Leading to death (200 mg (N = 5)): 0 (0.0) n (%)
Any TEAE: Leading to dose reduction (200 mg (N = 5)): 0 (0.0) n (%)
Any TEAE: Leading to treatment discontinuation (200 mg (N = 5)): 0 (0.0) n (%)
Any TEAE: Leading to treatment interruption (200 mg (N = 5)): 0 (0.0) n (%)
Any TEAE: SAE (200 mg (N = 5)): 0 (0.0) n (%)
Aspartate aminotransferase increased, Any Grade (200 mg (N = 5)): 1 (20.0) n (%)
Aspartate aminotransferase increased, ≥ Grade 3 (200 mg (N = 5)): 0 (0.0) n (%)
Blood and lymphatic system disorders, Any Grade (200 mg (N = 5)): 1 (20.0) n (%)
Blood and lymphatic system disorders, ≥ Grade 3 (200 mg (N = 5)): 0 (0.0) n (%)
Blood bilirubin increased, Any Grade (200 mg (N = 5)): 2 (40.0) n (%)
Blood bilirubin increased, ≥ Grade 3 (200 mg (N = 5)): 0 (0.0) n (%)
Cardiac disorders, Any Grade (200 mg (N = 5)): 1 (20.0) n (%)
Cardiac disorders, ≥ Grade 3 (200 mg (N = 5)): 0 (0.0) n (%)
Constipation, Any Grade (200 mg (N = 5)): 1 (20.0) n (%)
Constipation, ≥ Grade 3 (200 mg (N = 5)): 0 (0.0) n (%)
Decreased appetite, Any Grade (200 mg (N = 5)): 0 (0.0) n (%)
Decreased appetite, ≥ Grade 3 (200 mg (N = 5)): 0 (0.0) n (%)
Dizziness, Any Grade (200 mg (N = 5)): 0 (0.0) n (%)
Dizziness, ≥ Grade 3 (200 mg (N = 5)): 0 (0.0) n (%)
Drug-related TEAE: Grade 3 (200 mg (N = 5)): 1 (20.0) n (%)
Drug-related TEAE: Leading to death (200 mg (N = 5)): 0 (0.0) n (%)
Drug-related TEAE: Leading to dose reduction (200 mg (N = 5)): 0 (0.0) n (%)
Drug-related TEAE: Leading to treatment discontinuation (200 mg (N = 5)): 0 (0.0) n (%)
Drug-related TEAE: Leading to treatment interruption (200 mg (N = 5)): 0 (0.0) n (%)
Drug-related TEAE: SAE (200 mg (N = 5)): 0 (0.0) n (%)
Fatigue, Any Grade (200 mg (N = 5)): 1 (20.0) n (%)
Fatigue, ≥ Grade 3 (200 mg (N = 5)): 0 (0.0) n (%)
Gastrointestinal disorders, Any Grade (200 mg (N = 5)): 3 (60.0) n (%)
Gastrointestinal disorders, ≥ Grade 3 (200 mg (N = 5)): 0 (0.0) n (%)
General disorders and administration site conditions, Any Grade (200 mg (N = 5)): 2 (40.0) n (%)
General disorders and administration site conditions, ≥ Grade 3 (200 mg (N = 5)): 0 (0.0) n (%)
Headache, Any Grade (200 mg (N = 5)): 1 (20.0) n (%)
